Experimental findings from ChEMBL document CHEMBL5291721, “A preclinical secondary pharmacology resource illuminates target-adverse drug reaction associations of marketed drugs” (Nat Commun, 2023) are described below.

For experiment [1], the target named is Gamma-aminobutyric acid receptor subunit alpha-1 (Rattus norvegicus, UniProt P62813).
In experiment [2] the target is T1, 5-hydroxytryptamine receptor 1A (Homo sapiens, UniProt P08908).
T1 sequence (P08908 whole entry): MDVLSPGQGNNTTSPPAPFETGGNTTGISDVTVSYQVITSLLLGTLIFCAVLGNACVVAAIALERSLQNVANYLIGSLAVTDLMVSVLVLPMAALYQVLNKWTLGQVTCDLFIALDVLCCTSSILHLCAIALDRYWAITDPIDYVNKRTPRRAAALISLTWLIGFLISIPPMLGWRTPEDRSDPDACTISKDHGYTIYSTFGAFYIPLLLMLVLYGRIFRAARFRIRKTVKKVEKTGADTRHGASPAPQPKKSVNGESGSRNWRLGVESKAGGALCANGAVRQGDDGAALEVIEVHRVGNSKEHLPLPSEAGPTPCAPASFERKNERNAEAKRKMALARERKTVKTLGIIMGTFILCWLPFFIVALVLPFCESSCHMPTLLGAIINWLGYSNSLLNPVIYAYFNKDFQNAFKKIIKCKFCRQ
It is filed as functional, cell-based.

The target in experiment [3] is T2, Alpha-2C adrenergic receptor (Homo sapiens, UniProt P18825).
T2 sequence (P18825 whole entry): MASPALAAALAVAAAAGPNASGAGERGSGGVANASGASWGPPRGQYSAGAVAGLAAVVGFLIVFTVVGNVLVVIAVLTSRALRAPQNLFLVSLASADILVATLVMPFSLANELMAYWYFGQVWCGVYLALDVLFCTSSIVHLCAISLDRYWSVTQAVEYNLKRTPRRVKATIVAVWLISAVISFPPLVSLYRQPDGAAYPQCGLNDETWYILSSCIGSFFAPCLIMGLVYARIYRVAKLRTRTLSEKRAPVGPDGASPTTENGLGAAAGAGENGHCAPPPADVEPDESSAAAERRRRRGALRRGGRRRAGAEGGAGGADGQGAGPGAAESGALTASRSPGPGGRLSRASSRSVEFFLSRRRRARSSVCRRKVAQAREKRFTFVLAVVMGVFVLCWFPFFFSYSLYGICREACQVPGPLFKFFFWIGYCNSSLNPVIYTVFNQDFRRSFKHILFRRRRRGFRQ
Type of experiment: functional.

The target in experiment [4] is 5-hydroxytryptamine receptor 2B (Homo sapiens, UniProt P41595). Type of experiment: functional, cell-based.
5-hydroxytryptamine receptor 2B, sequence (P41595 whole entry): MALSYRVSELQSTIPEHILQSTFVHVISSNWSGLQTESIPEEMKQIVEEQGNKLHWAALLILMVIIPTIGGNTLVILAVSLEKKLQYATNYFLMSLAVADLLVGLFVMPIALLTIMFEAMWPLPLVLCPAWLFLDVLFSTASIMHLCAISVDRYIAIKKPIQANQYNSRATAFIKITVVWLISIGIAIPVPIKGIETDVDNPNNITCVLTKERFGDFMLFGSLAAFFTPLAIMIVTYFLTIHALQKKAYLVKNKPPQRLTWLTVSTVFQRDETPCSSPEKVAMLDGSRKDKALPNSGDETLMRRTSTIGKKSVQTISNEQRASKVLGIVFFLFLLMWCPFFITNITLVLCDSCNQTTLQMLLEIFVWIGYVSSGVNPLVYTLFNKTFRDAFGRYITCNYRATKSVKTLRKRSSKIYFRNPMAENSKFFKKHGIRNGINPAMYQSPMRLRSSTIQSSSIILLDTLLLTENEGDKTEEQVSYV
In experiment [5] the target is cGMP-inhibited 3',5'-cyclic phosphodiesterase 3A (Homo sapiens, UniProt Q14432). It is filed as functional.
cGMP-inhibited 3',5'-cyclic phosphodiesterase 3A, sequence (Q14432 whole entry): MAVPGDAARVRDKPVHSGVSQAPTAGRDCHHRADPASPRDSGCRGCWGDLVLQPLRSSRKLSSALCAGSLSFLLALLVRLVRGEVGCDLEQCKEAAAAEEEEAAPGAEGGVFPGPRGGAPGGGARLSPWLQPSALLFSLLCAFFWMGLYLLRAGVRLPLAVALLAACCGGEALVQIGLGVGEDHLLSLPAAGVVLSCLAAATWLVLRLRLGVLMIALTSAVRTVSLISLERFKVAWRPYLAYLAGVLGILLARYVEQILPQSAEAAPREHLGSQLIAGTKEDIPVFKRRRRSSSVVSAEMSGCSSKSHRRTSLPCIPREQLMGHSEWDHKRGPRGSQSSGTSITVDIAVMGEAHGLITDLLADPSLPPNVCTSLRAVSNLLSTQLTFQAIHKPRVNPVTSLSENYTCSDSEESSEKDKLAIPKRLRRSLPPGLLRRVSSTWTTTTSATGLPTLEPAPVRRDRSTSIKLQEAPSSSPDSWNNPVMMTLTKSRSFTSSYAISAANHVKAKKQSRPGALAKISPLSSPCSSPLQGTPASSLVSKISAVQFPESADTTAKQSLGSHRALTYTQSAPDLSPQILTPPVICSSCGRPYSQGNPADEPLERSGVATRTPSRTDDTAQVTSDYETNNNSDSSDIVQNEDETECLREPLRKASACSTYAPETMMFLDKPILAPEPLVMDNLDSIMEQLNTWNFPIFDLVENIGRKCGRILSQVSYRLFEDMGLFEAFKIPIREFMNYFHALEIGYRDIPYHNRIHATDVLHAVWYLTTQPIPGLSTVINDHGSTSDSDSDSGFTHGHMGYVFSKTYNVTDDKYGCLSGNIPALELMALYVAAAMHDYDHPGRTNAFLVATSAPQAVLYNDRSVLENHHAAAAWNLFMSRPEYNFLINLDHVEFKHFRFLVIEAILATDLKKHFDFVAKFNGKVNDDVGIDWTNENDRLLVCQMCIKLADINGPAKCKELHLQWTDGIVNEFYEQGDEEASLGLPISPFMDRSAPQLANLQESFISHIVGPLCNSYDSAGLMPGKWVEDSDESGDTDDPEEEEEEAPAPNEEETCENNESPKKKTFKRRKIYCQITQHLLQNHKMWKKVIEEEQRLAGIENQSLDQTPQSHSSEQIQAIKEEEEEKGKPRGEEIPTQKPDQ
The target in experiment [6] is Kappa-type opioid receptor (Homo sapiens, UniProt P41145).
Kappa-type opioid receptor, sequence (P41145 whole entry): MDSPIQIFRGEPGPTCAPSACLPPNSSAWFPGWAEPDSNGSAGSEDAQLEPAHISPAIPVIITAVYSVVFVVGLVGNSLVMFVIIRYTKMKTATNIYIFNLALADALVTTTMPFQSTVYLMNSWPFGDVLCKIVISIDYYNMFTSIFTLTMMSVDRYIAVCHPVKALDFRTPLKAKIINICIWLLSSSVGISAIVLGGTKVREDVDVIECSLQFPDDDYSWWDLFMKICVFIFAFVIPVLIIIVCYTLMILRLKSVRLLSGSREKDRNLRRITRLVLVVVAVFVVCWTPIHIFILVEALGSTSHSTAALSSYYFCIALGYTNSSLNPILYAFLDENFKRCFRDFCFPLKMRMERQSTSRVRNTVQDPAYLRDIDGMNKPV
Experiment [7] has as its target Delta-type opioid receptor (Homo sapiens, UniProt P41143).
In experiment [8] the target is T3, Glucocorticoid receptor (Homo sapiens, UniProt P04150).
T3 sequence (P04150 whole entry): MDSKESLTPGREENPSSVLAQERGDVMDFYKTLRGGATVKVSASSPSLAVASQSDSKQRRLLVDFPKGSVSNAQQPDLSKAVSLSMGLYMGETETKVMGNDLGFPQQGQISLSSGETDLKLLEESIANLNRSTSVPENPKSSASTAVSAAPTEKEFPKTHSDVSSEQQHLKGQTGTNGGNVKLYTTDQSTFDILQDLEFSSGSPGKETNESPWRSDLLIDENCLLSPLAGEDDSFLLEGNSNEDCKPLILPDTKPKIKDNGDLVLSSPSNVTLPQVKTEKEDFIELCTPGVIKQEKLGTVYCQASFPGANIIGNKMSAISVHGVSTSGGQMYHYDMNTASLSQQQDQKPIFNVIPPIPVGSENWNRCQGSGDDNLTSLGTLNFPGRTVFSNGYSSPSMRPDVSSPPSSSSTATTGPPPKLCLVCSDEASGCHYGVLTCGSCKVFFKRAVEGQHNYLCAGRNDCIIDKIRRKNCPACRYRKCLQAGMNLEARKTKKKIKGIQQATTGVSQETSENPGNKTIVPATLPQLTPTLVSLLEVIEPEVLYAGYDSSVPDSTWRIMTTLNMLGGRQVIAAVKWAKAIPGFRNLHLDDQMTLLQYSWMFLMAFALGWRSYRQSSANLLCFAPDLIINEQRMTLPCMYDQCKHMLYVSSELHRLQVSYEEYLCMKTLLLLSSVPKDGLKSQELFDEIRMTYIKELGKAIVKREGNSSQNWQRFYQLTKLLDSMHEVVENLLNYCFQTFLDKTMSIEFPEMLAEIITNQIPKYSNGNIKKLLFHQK

Experiment [9] concerns the target T4, Equilibrative nucleoside transporter 1 (Homo sapiens, UniProt Q99808).
T4 sequence (Q99808 whole entry): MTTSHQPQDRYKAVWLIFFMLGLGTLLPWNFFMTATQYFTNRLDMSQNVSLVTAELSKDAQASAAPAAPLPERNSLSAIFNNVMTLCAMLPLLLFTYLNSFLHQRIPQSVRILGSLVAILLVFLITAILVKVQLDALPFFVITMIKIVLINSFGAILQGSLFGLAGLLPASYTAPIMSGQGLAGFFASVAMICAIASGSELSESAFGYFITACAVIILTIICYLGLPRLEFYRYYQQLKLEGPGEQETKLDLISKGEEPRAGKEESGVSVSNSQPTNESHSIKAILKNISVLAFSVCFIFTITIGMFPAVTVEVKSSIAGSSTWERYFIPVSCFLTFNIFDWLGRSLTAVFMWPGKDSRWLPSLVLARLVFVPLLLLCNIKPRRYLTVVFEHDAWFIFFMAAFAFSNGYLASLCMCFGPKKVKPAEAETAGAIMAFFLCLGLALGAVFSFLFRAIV

*1 amine or outer side, *2 acyl side, *3 side chain or, on linkers, in order; H or OH if unused. Where a SMILES comes first, the peptide text is derived from it. Bridges are numbered along the chain shown (N, C = ends). [ ]: non-standard residue; d: D form. The star is where a group is joined. hTyr(3S-OH,4S-OH,3'-OSO3H) = N[C@H](C(=O)O)[C@H](O)[C@@H](O)c1ccc(O)c(OS(=O)(=O)O)c1; Orn(4R-OH,5R-OH) = O=C([C@H](C[C@@H](O)[C@@H](O)N[*:3])N[*:1])[*:2]; Pro(3S-OH,4S-Me) = C[C@H]1CN[C@H](C(=O)O)[C@H]1O; X1 = CCCCCOc1ccc(-c2cc(-c3ccc(C(=O)*)cc3)no2)cc1; Gln(3R-OH) = NC(=O)C[C@@H](O)[C@H](N)C(=O)O; Hyp = O=C(O)[C@@H]1C[C@@H](O)CN1 Some results are limits rather than exact numbers.
Note: assay procedure not described here.

Delta-type opioid receptor, sequence (P41143 whole entry): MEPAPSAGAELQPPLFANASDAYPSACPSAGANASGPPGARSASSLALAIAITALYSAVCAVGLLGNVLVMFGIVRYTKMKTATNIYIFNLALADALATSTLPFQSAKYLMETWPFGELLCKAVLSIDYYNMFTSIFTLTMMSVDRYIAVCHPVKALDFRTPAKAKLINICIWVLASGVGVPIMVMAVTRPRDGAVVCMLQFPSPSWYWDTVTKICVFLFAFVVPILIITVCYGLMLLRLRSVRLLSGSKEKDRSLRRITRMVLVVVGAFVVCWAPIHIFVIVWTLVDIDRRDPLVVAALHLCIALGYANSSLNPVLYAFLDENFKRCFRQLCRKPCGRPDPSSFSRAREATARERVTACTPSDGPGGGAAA
Gamma-aminobutyric acid receptor subunit alpha-1, sequence (P62813 whole entry): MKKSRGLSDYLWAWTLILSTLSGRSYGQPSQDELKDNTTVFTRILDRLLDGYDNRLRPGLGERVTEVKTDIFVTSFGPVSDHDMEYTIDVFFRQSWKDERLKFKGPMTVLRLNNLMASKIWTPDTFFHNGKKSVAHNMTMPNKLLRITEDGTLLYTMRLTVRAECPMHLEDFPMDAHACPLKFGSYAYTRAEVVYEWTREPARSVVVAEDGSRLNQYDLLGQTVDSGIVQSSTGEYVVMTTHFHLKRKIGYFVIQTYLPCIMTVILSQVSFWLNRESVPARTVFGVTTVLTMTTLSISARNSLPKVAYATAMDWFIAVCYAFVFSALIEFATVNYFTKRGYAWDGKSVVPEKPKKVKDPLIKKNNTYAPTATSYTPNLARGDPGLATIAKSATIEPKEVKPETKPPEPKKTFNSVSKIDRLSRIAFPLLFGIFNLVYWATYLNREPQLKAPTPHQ

For orientation: AC50 means the concentration at which the activity in the assay is half-maximal. A high value points to activity only at high concentration. In experiment [1], `N[C@@H](CSSC[C@H](N)C(=O)O)C(=O)O` [CYSTINE] showed an AC50 greater than 30 µM.

`C[C@]12CC[C@@H]3c4ccc(O)cc4CC[C@H]3[C@@H]1CC[C@@H]2OC(=O)CCC1CCCC1` [ESTRADIOL CYPIONATE] registered a concentration at half-maximal activity (AC50) in experiment [1] greater than 30 µM.

In the case of `CCC(=O)O[C@@H](O[P@](=O)(CCCCc1ccccc1)CC(=O)N1C[C@H](C2CCCCC2)C[C@H]1C(=O)O)C(C)C` [FOSINOPRIL], the concentration at half-maximal activity (AC50) in experiment [2], in [3], in experiment [4], in experiment [1], in experiment [5] and in experiment [6] was greater than 30 µM throughout. Moreover, in experiment [7], the AC50 is greater than 30 µM.

For `CC1(C)O[C@@H]2C[C@H]3[C@@H]4CCC5=CC(=O)CC[C@]5(C)[C@@]4(F)[C@@H](O)C[C@]3(C)[C@]2(C(=O)CCl)O1` [HALCINONIDE], the AC50 in experiment [1] was greater than 30 µM.

In [1], `C[C@]12CCC(=O)C=C1CC[C@@H]1[C@@H]2[C@@H](O)C[C@@]2(C)[C@H]1CC[C@]2(O)C(=O)COC(=O)CCC(=O)O` [HYDROCORTISONE HEMISUCCINATE ANHYDROUS] had a concentration at half-maximal activity (AC50) greater than 30 µM.

For `N=C(N)NCc1cccc([123I])c1` [IOBENGUANE I 123], the concentration at half-maximal activity (AC50) in experiment [1] is greater than 30 µM.

Molecule `CC(C)(N)C(=O)N[C@H](Cc1c[nH]c2ccccc12)C(=O)N[C@H](Cc1c[nH]c2ccccc12)NC=O` [MACIMORELIN] registered a concentration at half-maximal activity (AC50) in experiment [1] greater than 30 µM.

On to `C=C1c2c(Cl)ccc(O)c2C(=O)C2=C(O)[C@]3(O)C(=O)C(C(N)=O)=C(O)[C@@H](N(C)C)[C@@H]3[C@@H](O)[C@H]12` [MECLOCYCLINE], for which the AC50 in [1] was greater than 30 µM.

On to `CCCCCOc1ccc(-c2cc(-c3ccc(C(=O)N[C@H]4C[C@@H](O)[C@@H](O)NC(=O)[C@@H]5[C@@H](O)[C@@H](C)CN5C(=O)[C@H]([C@H](O)CC(N)=O)NC(=O)[C@H]([C@H](O)[C@@H](O)c5ccc(O)c(OS(=O)(=O)O)c5)NC(=O)[C@@H]5C[C@@H](O)CN5C(=O)[C@H]([C@@H](C)O)NC4=O)cc3)no2)cc1` [MICAFUNGIN] (X1-[Orn(4R-OH,5R-OH)]T[Hyp][hTyr(3S-OH,4S-OH,3'-OSO3H)][Gln(3R-OH)][Pro(3S-OH,4S-Me)]; lactam 1-C), for which the AC50 in experiment [1] is greater than 30 µM.

Consider `C#C[C@]1(O)CC[C@H]2[C@@H]3CCC4=C(CCC(=O)C4)[C@H]3CC[C@@]21C` [NORETHYNODREL], for which the AC50 in experiment [1] is greater than 30 µM.

For the molecule `CN(C)c1cc(CNCC(C)(C)C)c(O)c2c1C[C@H]1C[C@H]3[C@H](N(C)C)C(O)=C(C(N)=O)C(=O)[C@@]3(O)C(O)=C1C2=O` [OMADACYCLINE], the half-maximal activity concentration (AC50) was greater than 30 µM in [3]; greater than 30 µM in experiment [4]; greater than 30 µM in experiment [1]; greater than 30 µM in experiment [8]; greater than 30 µM in experiment [5]; greater than 10 µM in [9]. This molecule also had a half-maximal activity concentration (AC50) in experiment [7] of 27 µM.

For the molecule `CNC[C@H](O)c1cccc(O)c1` [PHENYLEPHRINE], the concentration at half-maximal activity (AC50) in experiment [2] is greater than 10 µM; in experiment [4], greater than 30 µM; in experiment [1], greater than 30 µM; in experiment [5], greater than 30 µM; in experiment [9] it was greater than 30 µM; in [6] it was greater than 10 µM. In [7], the AC50 is greater than 10 µM.

With `CC(C)COc1ccc(CNC(=O)N(Cc2ccc(F)cc2)C2CCN(C)CC2)cc1` [PIMAVANSERIN], the concentration at half-maximal activity (AC50) in [1] is greater than 30 µM.

With `CNC(=O)c1cc(Oc2ccc(NC(=O)Nc3ccc(Cl)c(C(F)(F)F)c3)c(F)c2)ccn1` [REGORAFENIB], the half-maximal activity concentration (AC50) in [3], in experiment [1], in experiment [5] and in experiment [7] was greater than 30 µM each time.

Regarding `CCCCNc1ccc(C(=O)OCCN(C)C)cc1` [TETRACAINE], the concentration at half-maximal activity (AC50) in experiment [2] was greater than 10 µM; in experiment [3] it was greater than 10 µM; in [4], 33 µM; in [1] it was greater than 30 µM; in experiment [8], greater than 30 µM; in [5], greater than 30 µM. For the same molecule, the concentration at half-maximal activity (AC50) in experiment [9] was greater than 30 µM; in experiment [6] it was greater than 10 µM; in experiment [7], greater than 10 µM.

Take `Cn1c(=O)c2[nH]cnc2n(C)c1=O` [THEOPHYLLINE]: the concentration at half-maximal activity (AC50) is greater than 10 µM in [2]; greater than 10 µM in [3]; greater than 10 µM in experiment [4]; greater than 30 µM in experiment [1]; greater than 30 µM in [9]; greater than 10 µM in [6]. For the same molecule, the AC50 in experiment [7] is greater than 30 µM.

Consider `CN1CCN(CCCN2c3ccccc3Sc3ccc(S(=O)(=O)N(C)C)cc32)CC1` [THIOPROPERAZINE], for which the AC50 in [3] was 2.6 µM; in experiment [4] it was greater than 30 µM; in [1], greater than 30 µM; in experiment [5], greater than 30 µM; in experiment [6], greater than 30 µM; in experiment [7], 29 µM.

`CC1(C)O[C@@H]2[C@@H](CO[C@@]3(COS(N)(=O)=O)OC(C)(C)O[C@@H]23)O1` [TOPIRAMATE]: the concentration at half-maximal activity (AC50) in experiment [2] is greater than 10 µM; in experiment [3] it was greater than 10 µM; in experiment [4] it was greater than 10 µM; in [1], greater than 30 µM; in [5] it was greater than 30 µM; in experiment [9], greater than 30 µM. Further, the half-maximal activity concentration (AC50) in [6] and in [7] was greater than 10 µM each time.

Molecule `NCCc1ccc(O)cc1` [TYRAMINE] came in with an AC50 in experiment [1] greater than 30 µM.
